The nature of the series: Solubility in 0.1 N HCl. The settings on record: simulated gastric fluid. It counts as physicochemical.

Values after ≈ are worked out from the molar mass of the structure shown.

Consider one compound from patent US10562888B2, “Crystalline FGFR4 inhibitor compound and uses thereof” (Eisai R&D Management Co., Ltd., priority 2015, dated 2020).

A word on the solubility: it is how much of the substance goes into solution per volume. Compound `C=CC(=O)Nc1cc(N2CCN(CC)CC2)ccc1Nc1cc(N(C)C(=O)Nc2c(Cl)c(OC)cc(OC)c2Cl)ncn1` [Compound 108, N-(2-((6-(3-(2,6-dichloro-3,5-dimethoxyphenyl)-1-methylureido)pyrimidin-4-yl)amino)-5-(4-ethylpiperazin-1-yl)phenyl)acrylamide] showed a solubility of 5200 µg/mL (≈ 8.26 mM).
